Entries after “also recorded” stand apart in the source; their conditions may differ.
Tests used:
[1] = tested on: CFA-injected mice; assay: Grip strength testing in CFA study; type: in vivo, C57Bl/6 mice; details: intra-peritoneal, CFA study
Protocol: Forepaw grip strength was determined using a grip strength meter (DFIS-2 series digital force gauge, Columbus Instruments, Columbus, Ohio). The animals' forelimbs were placed on a horizontal bar connected to a force gauge. The animal was the gently pulled away from the bar and the peak force required for a release was recorded. Each mouse was tested 3 times, with a 1 min inter-trial interval (Martinez-Huenchullan, S. F., et al., “Utility and reliability of non-invasive muscle function tests in high-fat-fed mice”. Experimental Physiology, 2017. 102(7): p. 773-778). The average peak tension (g), and tension normalised to body weight were compared.

[2] = tested on: CFA-injected mice; assay: CFA inflammatory pain model, incapacitance testing

## CN1CC[C@]23c4c5ccc(O)c4O[C@H]2[C@@H](O)C=C[C@H]3[C@H]1C5 [morphine]
[1]
  grip strength compared to vehicle control: increased grip strength
[2]; first 30 minutes after injection
  effectiveness in incapacitance test, morphine versus IK01400, pooled data: more effective
[2]; mice, intra-peritoneal
  hyperactivity: observed to induce hyperactivity
[2]; second hour after administration
  effectiveness in incapacitance test, morphine versus IK01400 (8.6 mg/kg): less effective than IK01400; also recorded: reduced

Source: patent US20210000912A1, “Compositions And Methods For Prophylaxis Or Treatment Of Pain” (Interk Peptide Therapeutics Limited, priority 2017, published 2021)
